Data on two substances can be found in patent publication US20240075080A1, “USE OF LACTIC ACID BACTERIA TO INHIBIT METHANOGEN GROWTH OR REDUCE METHANE EMISSIONS” (Fonterra Co-Operative Group Limited, priority 2020, published 2024).

Experiment [1] concerns Methanobrevibacter boviskoreani JH1. Kind of experiment: Plate-based methanogen bioassay of bacteriocin extract and supernatant samples (Example 2, MOPS buffer). Format: cell-based. As to conditions: for Mean % Growth JH1 / Mean % Inhibition: 30% v/v, sample 1 vs 0.9% NaCl, samples 2-7 vs MRS + NH4 lactate. The procedure: Cultures of the indicator methanogen strain were prepared according to item 1.1.1 of Example 1.
Cell and supernatant samples of L. rhamnosus HN001 were derived from a commercial manufacturing run of ˜5,000 L under standard production conditions. Four samples were used, consisting of: • Sample 1. L. rhamnosus HN001 cell sample, unwashed, freeze-dried, low pH extract. • Sample 2. L. rhamnosus HN001 supernatant sample, evaporated @50° C., 35% solids, ˜8× concentrated. • Sample 3. L. rhamnosus HN001 supernatant sample, evaporated @50° C., 45%+solids; ˜11× concentrated. • Sample 4. L. rhamnosus HN001 supernatant sample, freeze-dried.
These samples were kept frozen at −20° C. until needed. Prior to bioassay, the cell sample (Sample 1) was resuspended at 5% (wt/vol) in 0.9% NaCl, pH 6.8, and processed using the bacteriocin extraction method described in 2.1.3 below, resulting in an extract which was stored frozen at −20° C. until use. The evaporated supernatant samples (Samples 2 & 3) and the freeze-dried supernatant sample (Sample 4) were also resuspended at 5% (wt/vol) in 0.9% NaCl, pH 6.8 and filtered through Millex-GP 0.22 μm 25 mm diameter sterile filters (Millipore, Merck, Sigma-Aldrich NZ) into sterile N2-flushed Hungate tubes using 10 mL syringes. The headspace of the Hungate tubes were further flushed for 30 min with a sterile flow of N2 to remove traces of O2 from the samples.
Heat treatments were carried out with the L. rhamnosus HN001 supernatant which generated a further three samples as follows: • Sample 5. L. rhamnosus HN001 supernatant sample, heated at 72° C./15 sec. • Sample 6. L. rhamnosus HN001 supernatant sample, heated at 75° C./4 min. • Sample 7. L. rhamnosus HN001 supernatant sample, heated at 100° C./4 min.
After heat treatment, the samples were filtered through 0.22 μm filters as described above into sterile N2-flushed Hungate tubes and the headspace flushed with a sterile flow of N2. The samples were stored at −20° C. until screening in the indicator methanogen bioassay.
The resuspended culture was transferred into a 15 mL Falcon tube and the pH adjusted to ˜6.8 with 6M NaOH. The pH-adjusted culture sample was incubated at 70° C. for 45 minutes, then centrifuged for 15 min at 2600×g at 4° C. The supernatant was decanted and the cell pellet was resuspended in 8 mL 0.9% NaCl, pH 2. The pH of the resuspended pellet was checked and if necessary, 1M HCl was used to adjust the final pH to 2. The cells were incubated for 2 hours at 4° C. with slow agitation on a shaking platform. The cells were then centrifuged at 2600×g for 15 min at 4° C., and the supernatant collected into a fresh 15 mL Falcon tube. The pH of the supernatant was adjusted 6.8 with 1M NaOH. The pH-adjusted supernatant was filtered through a Millex-GP 0.22 μm 25 mm diameter sterile filter (Millipore, Merck, Sigma-Aldrich NZ) into a sterile N2-flushed Hungate tube using a 10 mL syringe, under sterile conditions. The filtered supernatant was frozen at −20° C. until use.
The bacteriocin extracts contained under anaerobic conditions in Hungate tubes were placed into an anaerobic chamber and allowed to thaw. All of the assay components except the bacteriocin extracts, were added and mixed in a sterile Hungate tube inside the anaerobic chamber in proportion to those indicated in Table 3 and then dispensed into wells of a multiwell 96 well plate containing the bacteriocin extracts. […]

For experiment [2] the following is noted: nisin >1 μM added to alfalfa hay; cited from earlier work.
In experiment [3] the test system is Methanobrevibacter boviskoreani JH1. Description: Plate-based methanogen bioassay of culture filtrates (Example 1, phosphate buffer). It is filed as cell-based. The conditions noted are these: filtered supernatant 30% v/v (nisin 4 μM); 5 days at 39° C.; OD600 relative to methanogen without treatment; 16 wells. Here is the method:
The inoculum of an indicator methanogen strain (Methanobrevibacter boviskoreani JH1) for seeding the plate assay was grown in 9 mL BY medium (Joblin, 2005) supplemented with 0.2 mL of 3 M sodium formate, 0.2 mL of 10 M ethanol, 0.1 mL of Vitamin Solution (Janssen et al., 1997) and 0.1 mL of Coenzyme M Solution (Sigma Aldrich, 0.1 M) by syringe using anaerobic techniques. The head spaces of the tubes were pumped with pressurized O2-free CO2 to 180 kPa and the tubes were incubated at 39° C. without shaking until visible turbidity appeared after 3 to 5 days. Methane produced by the methanogen strain was measured by removing a sample of the headspace gases by syringe and injecting on to a gas chromatograph (GC; Aerograph Corporation, USA) equipped with a Thermal Conductivity Detector (TCD) and using nitrogen as the carrier gas. […] The cultures were routinely observed via wet mounts under fluorescence microscopy, and the methanogen strain appears as short ovoid-shaped rods that fluoresce green under ultraviolet (UV) illumination. […]
Cultures of L. rhamnosus HN001, and control strains (L. plantarum ATCC 8014, L. bulgaricus ATCC 11842) were grown overnight in MRS broth (Sigma-Aldrich) at 39° C. The optical density at 600 nm (OD600) was measured for each culture, and a sample of each was serially diluted through MRS medium and the dilutions plated onto MRS agar plates to determine viable counts. […]

A further experiment deals with ruminal methanogens. The conditions noted are these: mixed rumen in vitro assay; cited from earlier work.

On to Nisin, for which the “inhibition of growth of the indicator methanogen strain (in words)” value in experiment [1] is listed as “strong inhibition”. Further, in experiment [1] (Assay 1), the “Mean % Growth JH1” value was determined as 5.2% and the “Mean % Inhibition” value was 97.5%. Further, in experiment [1] (Assay 2), the “Mean % Growth JH1” value is listed as 18.2% and the “Mean % Inhibition” value was 81.8%. Moreover, in experiment [2], the “ratio of acetate to propionate production (in words)” value was “reduced”. The “% methanogen growth” value in experiment [3] stood at 12.2%.
With bovicin HC5, the “reduction of methane production” value in the experiment on ruminal methanogens is listed as 50%.
